Laboratory results published in patent US9675658B2, “Method of treating inflammation, allergy and asthma with a purified extract (ATC2) isolated from Pseudolysimachion rotundam var. subintegrum containing abundant amount of active ingredient” (YUNGJIN PHARMACEUTICAL CO., LTD, priority 2012, dated 2017).

Tests used:
Format in all cases: in vivo, BALB/c mice
[1] = system: OVA-sensitized/challenged mouse model; experiment: Level of Th2 cytokines (IL-4, IL-5, IL-13) and IL-1β in BALF (ELISA); conditions: 30 mg/kg PO
Protocol: In order to confirm the inhibition effect of test samples prepared in Examples on the level of Th2 cytokines (IL-4, IL-5 and IL-13) and IL-1β in bronchoalveolar lavage fluid (BALF), following test was performed by the sandwich enzyme immunosorbent assay method disclosed in the literature (Renz H. et al., J. Exp. Med., […], pp 1175-1180, 1993).
The blood serum and bronchoalveolar lavage fluid (BALF) was added to 96-well plates (ELISA plate) coated with cytokine antibody to induce antigen-antibody reaction for 2 hours at room temperature. The level of Th2 cytokines (IL-4, IL-5 and IL-13) and IL-1β in bronchoalveolar lavage fluid (BALF) was determined using by ELISA kit (Biosource Int. CA, USA) specifically reacting with each cytokine according to the manufacture's manual.

[2] = system: OVA-sensitized/challenged mouse model; experiment: Preliminary determination of total serum IgE level in OVA-sensitized/challenged mouse model; conditions: 30 mg/kg PO 1 h prior to OVA inhalation
Protocol: In order to found the purified extract showing more pharmacologically potent activity than the crude extract prepared in comparative Example, following preliminary test was performed by the method disclosed in the literature (Elias, J. A. et al., J. Clin. Invest., 111, pp 297-297, 2003).
1-1. Animal Sensitization and Airway Challenge
(§1) Specific pathogen-free female BALB/c mice (about 20 g), aged 6 weeks, which were routinely screened serologically for relevant respiratory pathogens, were purchased from ORIENT Co. (Seoul, Korea) and acclimated with the experimental environment for 1 week.
(§2) Briefly, mice were sensitized by intraperitoneal injection of 20 μg OVA (Ovalbumin; A5503, Sigma, St. Louis, Mo.), which was emulsified in 2 mg aluminum hydroxide in 200 μl of PBS buffer (pH 7.4), biweekly. The mice were challenged through the airways with OVA (1% in PBS) for 30 min using an ultrasonic nebulizer (NE-U12; Omron Corp., Tokyo, Japan) from the 28th day to 34th day after the initial sensitization. 24 hrs after the antigen treatment, the airway hyperresponsiveness was determined and the mice were sacrificed 48 hrs after the last challenge. The mice were sacrificed with an overdose of pentobarbital (Entobal®, Hanrim Pharm. Co. Ltd.) 24 h after the last challenge, and a tracheotomy was performed. […]

[3] = system: OVA-sensitized/challenged mouse model; experiment: Goblet cell plasia, PAS staining of lung tissue; conditions: ratio of goblet cell in bronchiolar epithelial cell; 30 mg/kg PO
Protocol: In order to confirm the anti-asthmatic effect of test samples prepared in Examples, following goblet cell plasia analysis on broncho-alveolar tissue was performed by the method disclosed in the literature (Lee K S. et al., FASEB J., 20, pp 455-465, 2006).
The delivered lung tissues of BALB/c mice which had not perform broncho-alveolar lavage was fixed for 24 h in 10% neutral-buffered formalin. After being embedded in paraffin, then made into 4-μm thickness sections, the tissue was stained with Periodic acid Schiff (PAS stain kit, T-K7308, IMEB, CA, USA) to determine the ratio of goblet cell in bronchiolar epithelial cell

[4] = system: OVA-sensitized/challenged mouse model; experiment: Airway hyperresponsiveness test (Penh, whole body plethysmography, methacholine); conditions: 30 mg/kg PO
Protocol: In order to confirm the anti-asthmatic effect of test samples prepared in Examples using by airway hyperresponsiveness test in a OVA-sensitized/challenged mouse model, following test was performed by the method disclosed in the literature (Elias, J. A. et al., J. Clin. Invest., 111, pp 297-297, 2003).
as §1
as §2, with “performed. After […] of physiological saline solution (PBS) was instilled into the lungs, bronchoalveolar lavage fluid (BALF) was obtained by aspiration three times (total 1.5 ml) via tracheal cannulation.” for “performed.”
In order to evaluate the airway hyperresponsiveness of the mice, the airway resistance was determined using by apparatus (One chamber whole body plethymography, OCP3000, All Medicus, Seoul. Korea) and the determined value was statistically calculated by Pehn value (Enhance Pause) reflecting on the degree of airway obstruction. The Penh value was determined for 3 mins by the process of determining the basal value at the eupnea phase and determining the Penh value after inhaling PBS with Ultrasonic nebulizer (NE-U12, IMRON Corp., Tokyo, JAPAN) for 3 mins.
Thereafter, various concentrations of methacholine (A2251, Sigma, St. Louis, Mo.), 12, 25 and 50 mg/ml, were inhaled with increasing concentration to determine the Pehn values. The increase of Penh value was expressed as percentage (%) after the methacholine inhalation and the Penh value of basal line was set to 100%. […]

[5] = system: OVA-sensitized/challenged mouse model; experiment: Level of IgE and OVA-specific IgE in blood serum (ELISA); conditions: 30 mg/kg PO
Protocol: In order to confirm the inhibition effect of test samples prepared in Examples on the level of IgE and OVA-specific IgE in blood serum, following test was performed by the method disclosed in the literature (Kay, A. B., The New England Journal of Medicine, 344, pp 30-37, 2001).
The blood serum and bronchoalveolar lavage fluid (BALF) prepared in Experimental Example 1 was recovered to determine the level of IgE and OVA-specific IgE in blood serum.
The blood serum and bronchoalveolar lavage fluid (BALF) was added to 96-well plates (ELISA plate) and coated with 0.1M NaHCO3 buffer solution (pH 8.3) containing 20 μg/mlof OVA (Sigma, Mo., USA) at 4° C. overnight. After inhibiting nonspecific reaction using by PBS containing 1% bovine serum albumin, the serum for testing was diluted to 1:400 and reacted together for 2 hours at room temperature. After washing, the serum was reacted with diluted (×300) anti-mouse IgE monoclonal antibody (MCA419, Serotec, Oxford, UK) for 2 hours and with diluted (×4000) HRP-conjugated goat anti-rat IgG polyclonal A (STAR110P, Serotec, UK) for 1 hours at room temperature. After washing, the solution was stained with 3,3′,5,5′-tetramethylbenzidine (52-00-02, KPL) substrate and the reaction was stopped by 2N H2SO4 to determine the absorbance using by spectroscopy (Versamax, Molecular Devices, US) at 450 nm.

[6] = system: OVA-sensitized/challenged mouse model; experiment: Lung histology, H&E inflammation score; conditions: lung tissue, score 0-3; 30 mg/kg PO
Protocol: In order to confirm the anti-asthmatic effect of test samples prepared in Examples, following histopathological analysis on broncho-alveolar tissue was performed by the method disclosed in the literature (Kwak Y G. et al., J. Clin. Invest., 111, pp 1083-1092, 2003).
The delivered lung tissues of BALB/c mice which had not perform broncho-alveolar lavage was fixed for 24 h in 10% neutral-buffered formalin. After being embedded in paraffin, then made into 4-μm thickness sections, the tissue was stained with H&E solution (hematoxylin; Sigma MHS-16 and eosin, Sigma HT110-I-32) and the inflammation score of five regions in each section chosen in a randomized manner, was determined. (Inflammation score 0: inflamed cells is not found in bronchial surrounding, Inflammation score 1: inflamed cells is sporadically found in bronchial surrounding, Inflammation score 2: thin inflamed cell layer is found in most of bronchial surrounding, Inflammation score 3: thick inflamed cell layer is found in most of bronchial surrounding).

[7] = system: OVA-sensitized/challenged mouse model; experiment: Level of eosinophil and inflammatory cells in BALF; conditions: 30 mg/kg PO
Protocol: In order to confirm the inhibition effect of test samples prepared in Examples on the level of eosinophil and inflammatory cells in bronchoalveolar fluid (BALF), following test was performed by the method disclosed in the literature (Chen M. et al., Immunolgy, pp 376-384, 2011).
The bronchoalveolar lavage fluid (BALF) prepared in Experimental Example 1 was recovered to determine the level of inflammatory cells.
The total inflammatory cell number was assessed by the counting of cells in at least five squares of a hemocytometer after excluding dead cells by staining with trypan blue (Daigle I. et al., Swiss Med Wkly, 131, pp 231-7, 2001). 100 μl of BALF was loaded onto a slide and centrifuged (200×g, 4° C., 10 min) to fix the cells onto the slide using a Cellspin machine (Cyto12.5+clip5, Hanil Science Industrial, Korea). The cells were stained by Diff-Quick® Stain reagents (Sysmex, Cat No. 38721, Switzerland) according to the manufacturer's instructions. Statistical significance was determined by Student's two-tailed t-test for independent means and the critical level for significance was set at P<0.05.

## CC(C)(O)c1ccccc1CC[C@@H](SCC1(CC(=O)O)CC1)c1cccc(/C=C/c2ccc3ccc(Cl)cc3n2)c1 [M30, Montelukast]
[1]
  IL-1β level: 187.03 ± 47.17 pg/mL
  IL-4 level: 32.60 ± 4.53 pg/mL
  IL-5 level: 69.74 ± 7.17 pg/mL
  IL-13 level: 25.93 ± 4.13 pg/mL
[2]
  total IgE in blood serum: 1.82 ± 0.4 µg/mL
[3]
  PAS + cells/bronchiole: 39.21 ± 2.34%
[4]; methacholine 0 mg/Ml
  Penh Value: 0.49 ± 0.04
[4]; methacholine 12.5 mg/Ml
  Penh Value: 1.54 ± 0.20
[4]; methacholine 25 mg/Ml
  Penh Value: 1.98 ± 0.37
[4]; methacholine 50 mg/Ml
  Penh Value: 2.51 ± 0.36
[5]
  level of IgE in serum: 4.76 ± 0.73 µg/mL
[5]; blood serum
  level of OVA-specific IgE: 0.09 ± 0.02 µg/mL
[6]
  Inflammation score: 1.25 ± 0.13
[7]
  No. of eosinolphil: 52.03 ± 4.06 10^3 cells/mouse
  No. of inflammatory cells: 106.67 ± 6.48 10^3 cells/mouse
